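These data come from cells grown in 96-well plates and exposed to compound for 48 hours at five concentrations. At the GI50, growth is halved. At the TGI there is no net growth.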
Assays:
Assay in all cases: NCI anticancer screen, dose series, 48 h
SR leukemia = tested on: SR leukemia
ACHN renal = tested on: ACHN renal
U251 CNS = tested on: U251 CNS
HCC-2998 colon = tested on: HCC-2998 colon
SK-OV-3 ovarian = tested on: SK-OV-3 ovarian
HS 578T breast = tested on: HS 578T breast
SN12C renal = tested on: SN12C renal
RXF 393 renal = tested on: RXF 393 renal
SNB-75 CNS = tested on: SNB-75 CNS
A498 renal = tested on: A498 renal
T-47D breast = tested on: T-47D breast
UACC-257 melanoma = tested on: UACC-257 melanoma
A549 NSCLC = tested on: A549 NSCLC
MALME-3M melanoma = tested on: MALME-3M melanoma
HOP-62 NSCLC = tested on: HOP-62 NSCLC
IGROV1 ovarian = tested on: IGROV1 ovarian
PC-3 prostate = tested on: PC-3 prostate
SK-MEL-5 melanoma = tested on: SK-MEL-5 melanoma
SF-295 CNS = tested on: SF-295 CNS
SF-539 CNS = tested on: SF-539 CNS
OVCAR-5 ovarian = tested on: OVCAR-5 ovarian
SK-MEL-28 melanoma = tested on: SK-MEL-28 melanoma
MDA-MB-231 breast = tested on: MDA-MB-231 breast
OVCAR-4 ovarian = tested on: OVCAR-4 ovarian
SK-MEL-2 melanoma = tested on: SK-MEL-2 melanoma
HCT-15 colon = tested on: HCT-15 colon
CAKI-1 renal = tested on: CAKI-1 renal
MOLT-4 leukemia = tested on: MOLT-4 leukemia
M14 melanoma = tested on: M14 melanoma
BT-549 breast = tested on: BT-549 breast
EKVX NSCLC = tested on: EKVX NSCLC
SNB-19 CNS = tested on: SNB-19 CNS
786-0 renal = tested on: 786-0 renal
KM12 colon = tested on: KM12 colon
UACC-62 melanoma = tested on: UACC-62 melanoma
HOP-92 NSCLC = tested on: HOP-92 NSCLC
LOX IMVI melanoma = tested on: LOX IMVI melanoma
TK-10 renal = tested on: TK-10 renal
NCI/ADR-RES ovarian = tested on: NCI/ADR-RES ovarian
HL-60(TB) leukemia = tested on: HL-60(TB) leukemia
HCT-116 colon = tested on: HCT-116 colon
NCI-H522 lung = tested on: NCI-H522 lung
SW-620 colon = tested on: SW-620 colon
NCI-H460 lung = tested on: NCI-H460 lung
OVCAR-8 ovarian = tested on: OVCAR-8 ovarian
NCI-H226 lung = tested on: NCI-H226 lung
COLO 205 colon = tested on: COLO 205 colon
OVCAR-3 ovarian = tested on: OVCAR-3 ovarian
MDA-MB-435 = tested on: MDA-MB-435
UO-31 renal = tested on: UO-31 renal
DU-145 prostate = tested on: DU-145 prostate
MCF7 breast = tested on: MCF7 breast

## COc1cc2c3c(n(CCCNC4CCCC4)c(=O)c2cc1OC)-c1cc2c(cc1C3=O)OCO2
SR leukemia
  GI50: 0.133 µM
  TGI: 0.583 µM
ACHN renal
  GI50: 1.49 µM
  TGI: 2.84 µM
U251 CNS
  GI50: 1.27 µM
  TGI: 2.57 µM
HCC-2998 colon
  GI50: 3.45 µM
  TGI: 15.7 µM
SK-OV-3 ovarian
  GI50: 12.7 µM
  TGI: 26.4 µM
HS 578T breast
  GI50: 19.9 µM
  TGI: 81 µM
SN12C renal
  GI50: 1.8 µM
  TGI: 4.3 µM
RXF 393 renal
  GI50: 3.83 µM
  TGI: 15.5 µM
SNB-75 CNS
  GI50: 13.8 µM
  TGI: 27.3 µM
A498 renal
  GI50: 15.9 µM
  TGI: 29.7 µM
T-47D breast
  GI50: 16.6 µM
  TGI: 36.2 µM
UACC-257 melanoma
  GI50: 15.8 µM
  TGI: 30.3 µM
A549 NSCLC
  GI50: 7.46 µM
  TGI: 25.8 µM
MALME-3M melanoma
  GI50: 1.69 µM
  TGI: 3.27 µM
HOP-62 NSCLC
  GI50: 2.38 µM
  TGI: 20.9 µM
IGROV1 ovarian
  GI50: 1.4 µM
  TGI: 3.65 µM
PC-3 prostate
  GI50: 10.3 µM
  TGI: 31.9 µM
SK-MEL-5 melanoma
  GI50: 17.3 µM
  TGI: 31.2 µM
SF-295 CNS
  GI50: 0.628 µM
  TGI: 21.7 µM
SF-539 CNS
  GI50: 1.51 µM
  TGI: 2.98 µM
OVCAR-5 ovarian
  GI50: 2.46 µM
  TGI: 5.56 µM
SK-MEL-28 melanoma
  GI50: 15.8 µM
  TGI: 30.6 µM
MDA-MB-231 breast
  GI50: 1.57 µM
  TGI: 3.29 µM
OVCAR-4 ovarian
  GI50: 1.91 µM
  TGI: 3.99 µM
SK-MEL-2 melanoma
  GI50: 19 µM
  TGI: 35.6 µM
HCT-15 colon
  GI50: 1.59 µM
  TGI: 3.43 µM
CAKI-1 renal
  GI50: 1.24 µM
  TGI: 2.5 µM
MOLT-4 leukemia
  GI50: 0.0486 µM
  TGI: 3.37 µM
M14 melanoma
  GI50: 1.48 µM
  TGI: 2.9 µM
BT-549 breast
  GI50: 13.8 µM
  TGI: 27.3 µM
EKVX NSCLC
  GI50: 4.64 µM
  TGI: 17 µM
SNB-19 CNS
  GI50: 2.96 µM
  TGI: 25.5 µM
786-0 renal
  GI50: 1.61 µM
  TGI: 3.24 µM
KM12 colon
  GI50: 11 µM
  TGI: 25.2 µM
UACC-62 melanoma
  GI50: 13 µM
  TGI: 30.2 µM
HOP-92 NSCLC
  GI50: 12.5 µM
  TGI: 26.1 µM
LOX IMVI melanoma
  GI50: 1.03 µM
  TGI: 2.33 µM
TK-10 renal
  GI50: 22 µM
  TGI: 36.8 µM
NCI/ADR-RES ovarian
  GI50: 2.25 µM
  TGI: 15.7 µM
HL-60(TB) leukemia
  GI50: 1.02 µM
  TGI: 2.66 µM
HCT-116 colon
  GI50: 1.2 µM
  TGI: 2.67 µM
NCI-H522 lung
  GI50: 5.26 µM
  TGI: 32 µM
SW-620 colon
  GI50: 1.09 µM
  TGI: 2.44 µM
NCI-H460 lung
  GI50: 0.446 µM
  TGI: 1.98 µM
OVCAR-8 ovarian
  GI50: 1.45 µM
  TGI: 2.98 µM
NCI-H226 lung
  GI50: 17.8 µM
  TGI: 42 µM
COLO 205 colon
  GI50: 1.35 µM
  TGI: 15.4 µM
OVCAR-3 ovarian
  GI50: 1.64 µM
  TGI: 3.31 µM
MDA-MB-435
  GI50: 1.65 µM
  TGI: 3.19 µM
UO-31 renal
  GI50: 1.66 µM
  TGI: 4.21 µM
DU-145 prostate
  GI50: 1.44 µM
  TGI: 2.82 µM
MCF7 breast
  GI50: 0.673 µM
  TGI: 2.32 µM

From PubChem BioAssay (NCI)
